{
  "source": "patent US20030027804A1",
  "about": "“Therapeutic combinations for the treatment of hormone deficiencies” (priority 2001, published 2003)",
  "origin": "cited, not measured here",
  "key": {"[1]": {"biological_target": "T1, sex hormone binding globulin (SHBG), albumin (Homo sapiens, UniProt P04278)", "T1 sequence (P04278 30-402)": "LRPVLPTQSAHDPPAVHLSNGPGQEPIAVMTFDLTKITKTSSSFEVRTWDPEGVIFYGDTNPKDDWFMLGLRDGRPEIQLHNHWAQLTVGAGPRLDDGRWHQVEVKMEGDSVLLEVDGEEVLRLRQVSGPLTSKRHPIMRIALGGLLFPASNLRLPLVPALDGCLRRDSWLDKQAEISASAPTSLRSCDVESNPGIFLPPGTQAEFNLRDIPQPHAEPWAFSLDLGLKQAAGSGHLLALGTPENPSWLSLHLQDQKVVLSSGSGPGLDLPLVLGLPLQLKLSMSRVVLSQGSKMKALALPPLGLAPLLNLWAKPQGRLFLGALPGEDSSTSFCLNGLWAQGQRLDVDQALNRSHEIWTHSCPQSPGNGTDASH", "settings": "in men"}, "[2]": {"biological_target": "sex hormone binding globulin (SHBG), albumin (Homo sapiens, UniProt P02768)", "sequence (P02768 25-609)": "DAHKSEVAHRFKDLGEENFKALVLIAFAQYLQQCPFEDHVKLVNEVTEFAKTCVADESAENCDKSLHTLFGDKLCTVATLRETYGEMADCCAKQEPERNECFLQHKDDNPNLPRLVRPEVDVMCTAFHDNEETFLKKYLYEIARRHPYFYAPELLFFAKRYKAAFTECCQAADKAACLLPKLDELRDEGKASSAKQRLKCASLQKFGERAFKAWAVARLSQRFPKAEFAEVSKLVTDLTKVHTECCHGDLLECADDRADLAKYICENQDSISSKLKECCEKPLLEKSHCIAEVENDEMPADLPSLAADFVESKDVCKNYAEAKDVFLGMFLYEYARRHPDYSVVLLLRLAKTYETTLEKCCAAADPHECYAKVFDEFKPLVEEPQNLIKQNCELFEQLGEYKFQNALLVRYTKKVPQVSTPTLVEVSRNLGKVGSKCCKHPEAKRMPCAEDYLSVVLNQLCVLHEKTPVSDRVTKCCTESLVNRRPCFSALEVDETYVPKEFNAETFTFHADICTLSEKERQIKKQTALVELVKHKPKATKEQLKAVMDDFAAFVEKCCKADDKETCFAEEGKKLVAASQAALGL", "settings": "in men"}, "[3]": {"system": "sex hormone binding globulin (SHBG), albumin", "settings": "circulating in the blood"}, "[4]": {"settings": "oral"}, "[5]": {"settings": "in vivo"}, "[6]": {"settings": "oral, sublingual or buccal 17-alkylated androgens"}},
  "data": [
    {"smiles": "C[C@]12CC[C@H]3[C@@H](CCC4=CC(=O)CC[C@@]43C)[C@@H]1CC[C@@H]2O", "note": "[testosterone]", "values": [
      {"measurement": "share of binding to high-affinity SHBG", "setting": "[1]", "result": "approximately 40%"},
      {"measurement": "share bound weakly to albumin", "setting": "[2]", "result": 60, "unit": "%"},
      {"measurement": "testosterone in blood bound to protein", "setting": "[3]", "result": 98, "unit": "%"},
      {"measurement": "orally administered testosterone cleared by the liver in the first pass", "setting": "[4]", "result": "about 44%"}
    ]},
    {"smiles": "C[C@]12CC[C@@H]3c4ccc(O)cc4CC[C@H]3[C@@H]1CC[C@@H]2O", "note": "[estradiol, 1,3,5(10)-Estratriene-3,17 beta-diol]", "values": [
      {"measurement": "serum levels of estradiol required for clinical efficacy", "setting": "[5]", "result": "40 to 60", "unit": "pg/mL"}
    ]},
    {"smiles": "C[C@]1(O)CC[C@H]2[C@@H]3CCC4=CC(=O)CC[C@]4(C)[C@@]3(F)[C@@H](O)C[C@@]21C", "note": "[fluoxymesterone]", "values": [
      {"measurement": "liver toxicity", "setting": "[6]", "result": "associated with liver toxicity"}
    ]},
    {"smiles": "C[C@]12CCC(=O)C=C1CC[C@@H]1[C@@H]2CC[C@@]2(C)[C@H]1CC[C@]2(C)O", "note": "[methyl testosterone, 17 alpha-methyl-testosterone]", "values": [
      {"measurement": "liver toxicity", "setting": "[6]", "result": "associated with liver toxicity"}
    ]}
  ]
}
